The results in this text go back to PMC7291858, “An Enhanced Variant Designed From DLP4 Cationic Peptide Against Staphylococcus aureus CVCC 546” (Frontiers in Microbiology, 2020).

Peptide text beside a SMILES is read from it.

In one data set the test system is mouse erythrocytes. Put plainly: Hemolytic activity. In kind it is cell-based. Conditions: 128 μg/mL, 8% (v/v) mouse erythrocytes in PBS, 1 h, 37°C, absorbance 576 nm, n = 3. The procedure:
Hemolytic activity of peptides was evaluated with fresh mouse erythrocytes. Briefly, fresh mouse erythrocytes were collected, washed, and resuspended to a concentration of 8% (v/v) in PBS. Then, an aliquot of erythrocyte solution was added to 96-well plates containing an equal volume of peptide solution (1∼256 μg/mL) and was incubated for 1 h at 37°C. The erythrocyte suspension treated with 0.1% Triton X-100 and left untreated was employed as positive and negative controls, respectively. After centrifugation at 2000 rpm for 5 min, the supernatant was measured using a microplate reader at 576 nm. The percent hemolysis was calculated using the following formula: Percenthemolysis = [(A − A0)/(A100 − A0)] × 100%, where A, A100, and A0 represent the absorbance of the peptide sample and positive and negative controls, respectively.

The subject of another data set is Gram-negative bacteria. Briefly: MIC, summary over Gram-negative strains. Conditions: E. coli and Salmonella strains of Table 2. Format: cell-based. Here is the method: The minimal inhibitory concentration (MIC) was evaluated by a microtiter plate assay ([Wiegand et al., 2008]). Serial 2-fold dilutions of test peptides were placed into a 96-well plate containing identical bacterial inoculum and incubated at 37°C for 16∼20 h. Vancomycin was used as antibiotic control. The MIC value was defined as the lowest peptide concentration where no visible growth occurred. All tests were made in triplicate.

In another data set the test system is S. aureus CVCC 546. Put plainly: Post-antibiotic effect (PAE). In kind it is cell-based, Staphylococcus aureus. As to conditions: 2 × MIC, 2 h exposure, mean ± SD, n = 3. Here is the method: The PAE was determined by exposing S. aureus cells to antimicrobial agent at 1×, 2×, or 4 × MIC for 2 h. After drug removal by dilution, the bacterial culture was incubated at 37°C and 250 rpm. An aliquot of samples (50 μL) were taken for CFU counts at different time intervals until bacterial cultures became turbid. Bacteria treated with DLP4 or vancomycin and left without treatment were used as the positive and blank controls, respectively. The PAE was calculated using the following formula: PAE = T − C, where T is the time for the CFU counts to increase by 10-fold above the count observed immediately after drug removal, and C is the corresponding time for the untreated control ([Oh et al., 2019]).

In the data set on mouse erythrocytes, `CC[C@H](C)[C@@H]1NC(=O)[C@@H]2CSSC[C@@H](C(=O)N[C@@H](CCCNC(=N)N)C(=O)N[C@@H](CCCCN)C(=O)O)NC(=O)[C@H](CC(N)=O)NC(=O)[C@@H]3CSSC[C@H](NC(=O)[C@H](C)NC(=O)[C@H](C)NC(=O)[C@H](Cc4c[nH]cn4)NC(=O)CNC(=O)[C@H](C(C)C)NC(=O)[C@H](CCCCN)NC(=O)[C@H](Cc4ccccc4)NC(=O)[C@@H]4CCCN4C(=O)[C@H](CO)NC(=O)[C@H](CC(C)C)NC(=O)[C@H](CC(C)C)NC(=O)[C@H](CC(=O)O)NC(=O)[C@@H](NC(=O)[C@@H](NC(=O)[C@H](C)N)[C@@H](C)O)CSSC[C@H](NC(=O)[C@H](Cc4c[nH]c5ccccc45)NC(=O)CNC(=O)CNC(=O)[C@H](CCCNC(=N)N)NC(=O)[C@H](CCCCN)NC(=O)CNC(=O)[C@H](CCCNC(=N)N)NC(=O)[C@H](C)NC1=O)C(=O)N[C@@H](CC(=O)O)C(=O)NCC(=O)N[C@@H](CCCNC(=N)N)C(=O)N[C@@H](C)C(=O)N[C@@H](C(C)C)C(=O)N3)C(=O)N[C@@H](C)C(=O)N[C@@H](C)C(=O)N[C@@H](Cc1c[nH]cn1)C(=O)N2` [ID13] (HELM PEPTIDE1{A.T.C.D.L.L.S.P.F.K.V.G.H.A.A.C.A.A.H.C.I.A.R.G.K.R.G.G.W.C.D.G.R.A.V.C.N.C.R.K}$PEPTIDE1,PEPTIDE1,3:R3-30:R3|PEPTIDE1,PEPTIDE1,16:R3-36:R3|PEPTIDE1,PEPTIDE1,20:R3-38:R3$$$V2.0; N-terminus and C-terminus assumed) had a hemolysis of 0.38%. Also, in the data set with Gram-negative bacteria, the “activity against Gram-negative bacteria” value is listed as “no activity”. In the data set on S. aureus CVCC 546, this molecule yielded a PAE of 12.78 ± 0.28 h.
